The assay relates to 323965-272-R-J2-PDC complex spheroid viability. Nature of the assay: Anticancer human tumor 323965-272-R-J2-PDC patient-derived pancreatic carcinoma cell line growth inhibition [CLK]. Conditions: for viability, T/C: stronger effect = lower value; for IC50: curve of compound. In a few lines:
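Multi-cell-type spheroids combined patient-derived tumor cells with HUVEC endothelial cells and human mesenchymal stem cells. Paired agents were dosed in half-log steps down from about clinical Cmax, or from 10 microM where Cmax was unknown.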

Drawing on PubChem BioAssay AID2060619 (Molecular Pharmacology Branch, DTP, NCI, 2025), this text covers viability, T/C and IC50 for two compounds.

“And” between values parts separate entries of the source, which are not always exact repeats. Equal entries are not always repeated. Bounds are passed on as bounds.
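Note: spheroids exposed to agents for seven days before readout.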
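Throughout, for viability, T/C: percent of DMSO vehicle control wells so 100% = untreated growth.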

In the case of `COc1c(OCCCN2CCOCC2)ccc2c3n(c(=NC(=O)c4cnc(N)nc4)nc12)CCN3`, the 50% inhibitory concentration (IC50) (commonly the concentration at which inhibition is half-maximal) was 0.0836 µM and 0.0481 µM. Besides, the viability, T/C (usually the result in the treated group divided by that in the control group, in per cent) (compound 0.00316 µM) is 98.5% and 103%. Moreover, the viability, T/C (compound 0.01 µM) was 80.8% and 72.1%. The viability, T/C (compound 0.0316 µM) is 62% and 54.2%. Also, the viability, T/C (compound 0.1 µM) was 46.6% and 45.2%. Moreover, the viability, T/C (compound 0.316 µM) was 38.4% and 31%. Besides, the viability, T/C (compound 1 µM) was 27.7% and 21.9%.
With `C=CC(=O)N1CCN(c2nc(=O)n(-c3c(C)ccnc3C(C)C)c3nc(-c4c(O)cccc4F)c(F)cc23)C(C)C1` (centres undefined), the IC50 is over 10 µM. For the same compound, under “compound 0.0316 µM”, the viability, T/C is 75.1% and 73.7%. The viability, T/C (compound 0.1 µM) was 60.8% and 66.9%. The viability, T/C (compound 0.316 µM) is 55.2% and 68.3%. Besides, the viability, T/C (compound 1 µM) is 67.1% and 84.3%. In addition, the viability, T/C (compound 3.16 µM) was 76% and 71.3%. Further, the viability, T/C (compound 10 µM) was 62.9% and 66.1%.
